These results are taken from US8299111B2, “Compounds which modulate the CB2 receptor” (Boehringer Ingelheim International GmbH, priority 2006, dated 2012).

The structures appear in SMILES notation.

T1 sequence (P34972 whole entry): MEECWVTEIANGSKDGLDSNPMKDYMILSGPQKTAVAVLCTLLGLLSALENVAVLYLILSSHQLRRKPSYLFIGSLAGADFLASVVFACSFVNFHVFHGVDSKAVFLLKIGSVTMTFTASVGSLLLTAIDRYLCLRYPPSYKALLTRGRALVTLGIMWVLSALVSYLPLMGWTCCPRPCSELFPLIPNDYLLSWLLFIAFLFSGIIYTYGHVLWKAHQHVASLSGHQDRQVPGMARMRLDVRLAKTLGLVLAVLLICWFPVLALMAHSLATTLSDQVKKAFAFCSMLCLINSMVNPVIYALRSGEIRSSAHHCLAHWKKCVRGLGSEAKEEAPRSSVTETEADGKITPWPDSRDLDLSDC

This experiment has as its target T1, human CB2R (Homo sapiens, UniProt P34972).
T1 construct: host or cells: CHO cells
The experiment in a line: CB2R mediated modulation of cAMP synthesis. Format: cell-based. To be noted: found through the use of the above described assays (binding and cAMP); CHO cells expressing human CB2R, forskolin-stimulated cAMP. The method, boiled down:
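CHO cells expressing human CB2R were treated for 30 min at 37 °C with compound in buffer containing 1 mM IBMX, 0.25% BSA and 10 uM forskolin. cAMP was measured after lysis. EC50 is the concentration giving 50% inhibition of forskolin-stimulated cAMP, scaled to the level set by 1 uM CP55940, fitted by four-parameter logistic.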
With `CC(C)(C(=O)Nc1cnc2ccccc2c1)S(=O)(=O)c1ccc(F)cc1F` [2-(2,4-Difluoro-benzenesulfonyl)-2-methyl-N-quinolin-3-yl-propionamide], the agonistic activity result was “agonistic activity”.
In the case of `Cc1nc(NC(=O)C(C)(C)S(=O)(=O)c2cccc(F)c2)sc1C(C)(C)C` [N-(5-tert-Butyl-4-methyl-thiazol-2-yl)-2-(3-fluoro-benzenesulfonyl)-2-methyl-propionamide], the agonistic activity entry is “agonistic activity”.
Take `CC(C)(C(=O)Nc1ccc(C(F)(F)F)cn1)S(=O)(=O)c1ccc(F)cc1` [2-(4-Fluoro-benzenesulfonyl)-2-methyl-N-(5-trifluoromethyl-pyridin-2-yl)-propionamide]: the agonistic activity result is recorded as “agonistic activity”.
As for `Cc1ccnc(NC(=O)C(C)(C)S(=O)(=O)c2ccc(Cl)cc2)c1` [2-(4-Chloro-benzenesulfonyl)-2-methyl-N-(4-methyl-pyridin-2-yl)-propionamide], the agonistic activity entry is “agonistic activity”.
`CC(C)(C)c1cnc(NC(=O)C2(S(=O)(=O)c3ccc(C(F)(F)F)cc3)CCC2)s1` [1-(4-Trifluoromethyl-benzenesulfonyl)-cyclobutanecarboxylic acid (5-tert-butyl-thiazol-2-yl)-amide]: the agonistic activity result was “agonistic activity”.
Regarding `CC(C)(C(=O)Nc1cc2ccccc2cn1)S(=O)(=O)c1ccc(Cl)cc1` [2-(4-Chloro-benzenesulfonyl)-N-isoquinolin-3-yl-2-methyl-propionamide], the agonistic activity result is recorded as “agonistic activity”.
The same measure for `CC(C)(C(=O)Nc1nc(-c2ccc(F)c(F)c2)cs1)S(=O)(=O)c1ccc(Cl)cc1` [2-(4-Chloro-benzenesulfonyl)-N-[4-(3,4-difluoro-phenyl)-thiazol-2-yl]-2-methyl-propionamide]: “agonistic activity”; for `CC(C)(C(=O)Nc1nc(C2CCCCC2)cs1)S(=O)(=O)c1ccc(Cl)cc1F` [2-[(4-chloro-2-fluorophenyl)sulfonyl]-N-(4-cyclohexyl-1,3-thiazol-2-yl)-2-methylpropanamide]: “agonistic activity”.
As for `CCOC(=O)c1sc(NC(=O)C(C)(C)S(=O)(=O)c2ccc(Cl)cc2)nc1C(F)(F)F` [ethyl 2-({2-[(4-chlorophenyl)sulfonyl]-2-methylpropanoyl}amino)-4-(trifluoromethyl)-1,3-thiazole-5-carboxylate], the agonistic activity entry is listed as “agonistic activity”.
As to `CC(C)(C(=O)Nc1ccc(C(F)(F)F)cn1)S(=O)(=O)c1ccc(Cl)cc1` [2-(4-Chloro-benzenesulfonyl)-2-methyl-N-(5-trifluoromethyl-pyridin-2-yl)-propionamide], the agonistic activity entry is given as “agonistic activity”.
As to `Cn1nc(-c2ccccc2)cc1NC(=O)C(C)(C)S(=O)(=O)c1ccc(F)cc1F` [2-(2,4-Difluoro-benzenesulfonyl)-2-methyl-N-(2-methyl-5-phenyl-2H-pyrazol-3-yl)-propionamide], the agonistic activity result was “agonistic activity”.
With `O=C(Nc1cccc(C(F)(F)F)n1)C1(S(=O)(=O)c2ccc(C(F)(F)F)cc2)CC1` [1-(4-Trifluoromethyl-benzenesulfonyl)-cyclopropanecarboxylic acid (6-trifluoromethyl-pyridin-2-yl)-amide], the agonistic activity entry is reported as “agonistic activity”.
Turning to `CC(C)C(C(=O)Nc1cc(C(C)(C)C)nn1C)S(=O)(=O)c1ccc(C(F)(F)F)cc1` (stereo not drawn) [N-(5-tert-Butyl-2-methyl-2H-pyrazol-3-yl)-3-methyl-2-(4-trifluoromethyl-benzenesulfonyl)-butyramide], the agonistic activity entry is on record as “agonistic activity”.
For the molecule `Cn1nc(-c2cccs2)cc1NC(=O)C(C)(C)S(=O)(=O)c1ccc(Cl)cc1` [2-(4-Chloro-benzenesulfonyl)-2-methyl-N-(2-methyl-5-thiophen-2-yl-2H-pyrazol-3-yl)-propionamide], the agonistic activity result is given as “agonistic activity”.
For the molecule `Cn1nc(C(C)(C)C)cc1NC(=O)C1(S(=O)(=O)c2ccc(C(F)(F)F)cc2)CCOCC1` [4-(4-Trifluoromethyl-benzenesulfonyl)-tetrahydro-pyran-4-carboxylic acid (5-tert-butyl-2-methyl-2H-pyrazol-3-yl)-amide], the agonistic activity entry is “agonistic activity”.
Then `CC(C)(C(=O)Nc1ccc2ccccc2n1)S(=O)(=O)c1ccc(Cl)cc1F` [2-[(4-chloro-2-fluorophenyl)sulfonyl]-2-methyl-N-quinolin-2-ylpropanamide], with “agonistic activity”.
With `CC(C)(C)c1cc(NC(=O)C(C)(C)S(=O)(=O)c2cccc(C#N)c2)no1` [N-(5-tert-Butyl-isoxazol-3-yl)-2-(3-cyano-benzenesulfonyl)-2-methyl-propionamide], the agonistic activity entry is given as “agonistic activity”.
As for `CC(C)(C(=O)Nc1ccc(-c2ccccc2)cn1)S(=O)(=O)c1ccc(Cl)cc1` [2-(4-Chloro-benzenesulfonyl)-2-methyl-N-(5-phenyl-pyridin-2-yl)-propionamide], the agonistic activity result is “agonistic activity”.
As for `CC(C)(C(=O)Nc1nc(C2CC2)cs1)S(=O)(=O)c1ccc(Cl)cc1` [2-(4-Chloro-benzenesulfonyl)-N-(4-cyclopropyl-thiazol-2-yl)-2-methyl-propionamide], the agonistic activity entry is “agonistic activity”.
The same measure for `CC(C)(C)c1cc(NC(=O)C(C)(C)S(=O)(=O)c2ccc(Cl)s2)no1` [N-(5-tert-Butyl-isoxazol-3-yl)-2-(5-chloro-thiophene-2-sulfonyl)-2-methyl-propionamide]: “agonistic activity”; for `CC(C)(C(=O)Nc1cc(-c2ccccc2)no1)S(=O)(=O)c1ccc(Cl)cc1` [2-(4-Chloro-benzenesulfonyl)-2-methyl-N-(3-phenyl-isoxazol-5-yl)-propionamide]: “agonistic activity”; for `CC(C)(C)c1cc(NC(=O)C(C)(C)S(=O)(=O)c2ccsc2)no1` [N-(5-tert-Butyl-isoxazol-3-yl)-2-methyl-2-(thiophene-3-sulfonyl)-propionamide]: “agonistic activity”.
On to `CC(C)(C(=O)Nc1nc2c(s1)CCCC2)S(=O)(=O)c1ccc(S(C)(=O)=O)cc1` [2-methyl-2-{[4-(methylsulfonyl)phenyl]sulfonyl}-N-(4,5,6,7-tetrahydro-1,3-benzothiazol-2-yl)propanamide], for which the agonistic activity entry is “agonistic activity”.
Regarding `Cc1noc(NC(=O)C(C)(C)S(=O)(=O)c2ccc(Cl)cc2)c1C` [2-(4-Chloro-benzenesulfonyl)-N-(3,4-dimethyl-isoxazol-5-yl)-2-methyl-propionamide], the agonistic activity entry is “agonistic activity”.
Consider `CC(C)(C(=O)Nc1cccc(C(F)(F)F)n1)S(=O)(=O)c1ccc(F)cc1F` [2-[(2,4-difluorophenyl)sulfonyl]-2-methyl-N-[6-(trifluoromethyl)pyridin-2-yl]propanamide], for which the agonistic activity entry was “agonistic activity”.
As to `CC(C)(C(=O)Nc1ccc(C(F)(F)F)cn1)S(=O)(=O)c1ccc(C(F)(F)F)nc1` [2-Methyl-2-(6-trifluoromethyl-pyridine-3-sulfonyl)-N-(5-trifluoromethyl-pyridin-2-yl)-propionamide], the agonistic activity entry is “agonistic activity”.
As to `CC(C)(C)c1nnc(NC(=O)C(C)(C)S(=O)(=O)c2ccc(Cl)cc2)s1` [N-(5-tert-Butyl-[1,3,4]thiadiazol-2-yl)-2-(4-chloro-benzenesulfonyl)-2-methyl-propionamide], the agonistic activity result is recorded as “agonistic activity”.
For `CC(C)(C)c1cc(NC(=O)C(C)(C)S(=O)(=O)c2ccc3nsnc3c2)no1` [2-(Benzo[1,2,5]thiadiazole-5-sulfonyl)-N-(5-tert-butyl-isoxazol-3-yl)-2-methyl-propionamide], the agonistic activity result is given as “agonistic activity”.
The same measure for `CCCc1cc(NC(=O)C(C)(C)S(=O)(=O)c2ccc(S(C)(=O)=O)cc2)on1` [2-methyl-2-{[4-(methylsulfonyl)phenyl]sulfonyl}-N-(3-propylisoxazol-5-yl)propanamide]: “agonistic activity”.
For the molecule `CC(C)(C)c1csc(NC(=O)C(C)(C)S(=O)(=O)c2ccc(C(F)(F)F)nc2)n1` [N-(4-tert-Butyl-thiazol-2-yl)-2-methyl-2-(6-trifluoromethyl-pyridine-3-sulfonyl)-propionamide], the agonistic activity entry is reported as “agonistic activity”.
In the case of `CC(C)(C(=O)Nc1cnc2ccccc2c1)S(=O)(=O)c1ccc(Cl)cc1` [2-(4-Chloro-benzenesulfonyl)-2-methyl-N-quinolin-3-yl-propionamide], the agonistic activity result is listed as “agonistic activity”.
On to `Cc1ccc(NC(=O)C(C)(C)S(=O)(=O)c2ccc(Cl)cc2F)nc1` [2-[(4-chloro-2-fluorophenyl)sulfonyl]-2-methyl-N-(5-methylpyridin-2-yl)propanamide], for which the agonistic activity result is reported as “agonistic activity”.
As to `CC(C)(C(=O)Nc1ccc(C(F)(F)F)cn1)S(=O)(=O)c1ccc(F)cc1F` [2-[(2,4-difluorophenyl)sulfonyl]-2-methyl-N-[5-(trifluoromethyl)pyridin-2-yl]propanamide], the agonistic activity result is on record as “agonistic activity”.
Regarding `CC(C)(C(=O)Nc1cccc2ccccc12)S(=O)(=O)c1ccc(Cl)cc1F` [2-[(4-chloro-2-fluorophenyl)sulfonyl]-2-methyl-N-1-naphthylpropanamide], the agonistic activity result is recorded as “agonistic activity”.
With `Cc1nc(NC(=O)C(C)(C)S(=O)(=O)c2ccccc2F)sc1C(C)(C)C` [N-(5-tert-Butyl-4-methyl-thiazol-2-yl)-2-(2-fluoro-benzenesulfonyl)-2-methyl-propionamide], the agonistic activity result is reported as “agonistic activity”.
With `CC(C)(C(=O)Nc1cccc(C(F)(F)F)n1)S(=O)(=O)c1cc(F)ccc1F` [2-(2,5-Difluoro-benzenesulfonyl)-2-methyl-N-(6-trifluoromethyl-pyridin-2-yl)-propionamide], the agonistic activity result is on record as “agonistic activity”.
